Measured values reported in patent US20250270645A1, “ALGORITHM AND AN IN VITRO METHOD BASED ON RNA EDITING TO SELECT PARTICULAR EFFECT INDUCED BY ACTIVE COMPOUNDS” (ALCEDIAG, priority 2016, published 2025).
Entries after “also recorded” stand apart in the source; their conditions may differ.

Experiments:
HTR2C RNA editing [1] = experiment: Dose-dependent alterations of HTR2C RNA editing profile in SH-SY5Y cells; format: cell-based, human; conditions: compared to vehicle-treated cells
Description: Prior to the experiment, the human neuroblastoma cell line (SH-SY5Y) was treated with an increasing dose of interferon and RNA editing of 5HT2cR was measured using NGS based approach.
The RNA editing profiles represent the respective relative proportion of HTR2C RNA editing as compared to vehicle-treated SH-SY5Y cells.

[2] = annotation of the molecule (low/no risk versus high/at risk); cited from earlier work
ADAR1a mRNA expression = experiment: Relative ADAR1a mRNA expression by quantitative PCR in treated SH-SY5Y cells; format: cell-based, human; conditions: 48 hours
Description: After cDNA synthesis samples were stored at 4° C. prior analysis of ADAR1a mRNA expression by qPCR on a LC480 system (Roche). qPCR data were quantified using the standard curve method. mRNA expression of ADAR1a is known to be induced by Interferon alpha treatment (IFNα). […] In this way, all samples of the same batch could be analysed in a single qPCR run. […] This response could be seen in all biological replicates (n=5). […] The coefficient of variation of 9.31% clearly illustrates the reproducibility of the biological phenomenon.

HTR2C RNA editing [3] = experiment: Time course of HTR2C RNA editing in SH-SY5Y cells with risk score by the most preferred algorithm (prob(Algorithm)); format: cell-based, human; conditions: for prediction / prob(Algorithm) risk score: SH-SY5Y, HTR2C; for time course of HTR2C RNA editing profile: SH-SY5Y cells, 12-48 h; for risk score over time points: most preferred algorithm, each time point

CNC1(c2ccccc2Cl)CCCCC1=O (centres unmarked) [Ketamine]
dose dependence of 5-HT2cR/HTR2C RNA editing profile (HTR2C RNA editing [1]): Dose-dependent alterations of RNA editing profiles | risk class to induce psychiatric adverse side effect in a patient [2]: low risk

NC(=O)c1ncn([C@@H]2O[C@H](CO)[C@@H](O)[C@H]2O)n1 [Ribavirin]
risk class to induce psychiatric adverse side effect in a patient [2]: low risk

CNCCC(Oc1ccc(C(F)(F)F)cc1)c1ccccc1 (centres unmarked) [Fluoxetine]
risk class to induce psychiatric adverse side effect in a patient [2]: high risk

C[C@H](NC(=O)C(C)(C)Oc1ccc(C(F)(F)F)cn1)[C@@H](Cc1ccc(Cl)cc1)c1cccc(C#N)c1 [Taranabant]
risk class to induce psychiatric adverse side effect in a patient [2]: at risk

CC1=C(/C=C/C(C)=C/C=C/C(C)=C\C(=O)O)C(C)(C)CCC1 [Isotretinoin]
risk class to induce psychiatric adverse side effect in a patient [2]: at risk

COC(=O)[C@H]1[C@H]2C[C@@H]3c4[nH]c5cc(OC)ccc5c4CCN3C[C@H]2C[C@@H](OC(=O)c2cc(OC)c(OC)c(OC)c2)[C@@H]1OC [Reserpine]
effect on ADAR1a mRNA expression (ADAR1a mRNA expression): consistently increase ADAR1a mRNA levels | risk class to induce psychiatric adverse side effect in a patient [2]: high risk | prediction (HTR2C RNA editing [3]; 12 h treatment): Pos | prob(Algorithm) risk score (HTR2C RNA editing [3]; 12 h treatment): 0.878 | prediction (HTR2C RNA editing [3]; 24 h treatment): Pos | prob(Algorithm) risk score (HTR2C RNA editing [3]; 24 h treatment): 0.986 | prediction (HTR2C RNA editing [3]; 48 h treatment): Pos | prob(Algorithm) risk score (HTR2C RNA editing [3]; 48 h treatment): 0.976 | time course of HTR2C RNA editing profile (HTR2C RNA editing [3]): time-dependent alterations of the RNA editing profile | risk score over time points (HTR2C RNA editing [3]): risk scores were high at all time points

O=C1CCc2ccc(OCCCCN3CCN(c4cccc(Cl)c4Cl)CC3)cc2N1 [Aripiprazole]
risk class to induce psychiatric adverse side effect in a patient [2]: at risk | prob(Algorithm) risk score (HTR2C RNA editing [3]; 12 h treatment): 0.528 | prediction (HTR2C RNA editing [3]; 24 h treatment): Pos | prob(Algorithm) risk score (HTR2C RNA editing [3]; 24 h treatment): 0.632 | prediction (HTR2C RNA editing [3]; 48 h treatment): Pos | prob(Algorithm) risk score (HTR2C RNA editing [3]; 48 h treatment): 0.760 | time course of HTR2C RNA editing profile (HTR2C RNA editing [3]): time-dependent alterations of the RNA editing profile | risk score over time points (HTR2C RNA editing [3]): identified positively at risk starting from 24 hours and beyond

CN[C@H]1CC[C@@H](c2ccc(Cl)c(Cl)c2)c2ccccc21 [Sertraline]
dose dependence of 5-HT2cR/HTR2C RNA editing profile (HTR2C RNA editing [1]): Dose-dependent alterations of RNA editing profiles | risk class to induce psychiatric adverse side effect in a patient [2]: at risk

[Li] [Lithium]
risk class to induce psychiatric adverse side effect in a patient [2]: low risk

CCN(CC)CC(=O)Nc1c(C)cccc1C [Lidocaine]
risk class to induce psychiatric adverse side effect in a patient [2]: low or no risk

COC(=O)[C@H]1[C@H]2C[C@@H]3c4[nH]c5cc(OC)ccc5c4CCN3C[C@H]2C[C@@H](OC(=O)c2cc(OC)c(OC)c(OC)c2)[C@@H]1OC [molecule 165]
effect on ADAR1a mRNA expression (ADAR1a mRNA expression): induced ADAR1a mRNA expression; also recorded: strong increase of ADAR1a mRNA expression levels
